Experimental data: ChEMBL document CHEMBL4680161, “Design and synthesis of α-naphthoflavone chimera derivatives able to eliminate cytochrome P450 (CYP)1B1-mediated drug resistance via targeted CYP1B1 degradation” (Eur J Med Chem, 2020); call rule not given here

What was measured:
Cytochrome P450 1B1 = biological target: T1, Cytochrome P450 1B1 (Homo sapiens, UniProt Q16678); test: Inhibition of recombinant human CYP1B1 expressed in baculovirus infected insect cells using 7-ethoxyresorufin as substrate preincubated for 5 mins followed by NADPH addition and measured after 15 mins by EROD assay
T1 sequence (Q16678 whole entry): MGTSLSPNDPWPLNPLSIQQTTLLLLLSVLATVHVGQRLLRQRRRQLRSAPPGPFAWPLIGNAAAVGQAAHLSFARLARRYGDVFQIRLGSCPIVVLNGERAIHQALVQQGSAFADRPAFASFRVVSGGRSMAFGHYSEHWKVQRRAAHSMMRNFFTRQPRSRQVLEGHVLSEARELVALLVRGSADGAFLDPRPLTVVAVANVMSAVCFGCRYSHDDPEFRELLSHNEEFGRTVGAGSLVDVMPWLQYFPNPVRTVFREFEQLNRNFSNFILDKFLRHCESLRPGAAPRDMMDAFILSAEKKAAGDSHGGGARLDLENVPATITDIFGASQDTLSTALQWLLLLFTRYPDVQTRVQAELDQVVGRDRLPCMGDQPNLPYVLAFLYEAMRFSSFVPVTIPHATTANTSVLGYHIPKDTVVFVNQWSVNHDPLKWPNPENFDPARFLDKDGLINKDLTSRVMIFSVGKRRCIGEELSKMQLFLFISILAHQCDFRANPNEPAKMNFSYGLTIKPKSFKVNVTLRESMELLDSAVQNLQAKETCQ

Cytochrome P450 1A2 = biological target: T2, Cytochrome P450 1A2 (Homo sapiens, UniProt P05177); test: Inhibition of recombinant human CYP1A2 expressed in baculovirus infected insect cells using 7-ethoxyresorufin as substrate preincubated for 5 mins followed by NADPH addition and measured after 35 mins by EROD assay; type: ADME
T2 sequence (P05177 whole entry): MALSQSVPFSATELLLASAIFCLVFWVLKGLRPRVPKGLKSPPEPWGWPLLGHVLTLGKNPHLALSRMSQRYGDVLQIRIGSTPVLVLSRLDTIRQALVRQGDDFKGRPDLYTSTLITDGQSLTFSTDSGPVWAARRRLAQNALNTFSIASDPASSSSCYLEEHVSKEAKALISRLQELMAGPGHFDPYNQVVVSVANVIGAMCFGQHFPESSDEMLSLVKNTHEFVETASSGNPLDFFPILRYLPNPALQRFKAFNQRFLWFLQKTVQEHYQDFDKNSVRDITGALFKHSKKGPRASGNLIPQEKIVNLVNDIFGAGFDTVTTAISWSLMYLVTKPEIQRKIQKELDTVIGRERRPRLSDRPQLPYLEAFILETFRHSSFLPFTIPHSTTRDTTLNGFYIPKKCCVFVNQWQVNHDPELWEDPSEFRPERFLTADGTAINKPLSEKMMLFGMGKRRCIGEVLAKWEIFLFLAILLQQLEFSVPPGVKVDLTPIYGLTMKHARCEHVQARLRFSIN

[1] = biological target: von Hippel-Lindau disease tumor suppressor/Cytochrome P450 1B1 (Homo sapiens, UniProt Q16678+P40337); test: Protac activity at E3 ubiquitin ligase/CYP1B1 (unknown origin) expressed in human DU145 cells assessed as induction of CYP1B1 degradation by immunoblotting analysis; type: cell-based; settings: du-145
DU-145 [2] = test: Cytotoxicity against human DU-145 cells assessed as reduction in cell viability after 48 hrs by MTT assay; type: functional, cell-based; settings: DU-145, 48 h
DU-145 [3] = test: Cytotoxicity against human DU-145 cells over expressing CYP1B1 assessed as reduction in cell viability after 48 hrs by MTT assay; type: functional, cell-based; settings: DU-145, 48 h
[4] = Selectivity ratio of IC50 for cytotoxicity against human DU-145 cells over expressing CYP1B1 to cytotoxicity against human DU-145 cells; type: functional
Homo sapiens = organism: Homo sapiens; test: Selectivity ratio IC50 for inhibition of recombinant human CYP1A2 to inhibition of recombinant human CYP1B1

Chain of von Hippel-Lindau disease tumor suppressor/Cytochrome P450 1B1 (P40337 whole entry, one chain of several): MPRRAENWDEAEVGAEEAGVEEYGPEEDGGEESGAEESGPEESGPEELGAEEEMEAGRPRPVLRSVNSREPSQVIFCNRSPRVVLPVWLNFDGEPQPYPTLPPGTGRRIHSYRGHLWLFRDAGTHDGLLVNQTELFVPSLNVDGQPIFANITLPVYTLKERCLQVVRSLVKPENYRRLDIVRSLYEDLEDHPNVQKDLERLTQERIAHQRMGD

IC50 (Cytochrome P450 1B1) | IC50 (Cytochrome P450 1A2) | Activity [1] | Compound | IC50 (DU-145 [2]) | IC50 (DU-145 [3]) | Ratio IC50 [4] | Ratio IC50 (Homo sapiens)
166 nM | 7460 nM | Not Active | COc1ccc(OC)c2c1c(OC)cc1c(=O)cc(-c3ccc(-c4cn(CCCCCCCCOc5cccc6c5C(=O)N(C5CCC(=O)NC5=O)C6=O)nn4)cc3)oc12 (configuration not stated) | – | – | – | 44.8
0.4 nM | 47.8 nM | – | COc1ccc(OC)c2c1c(OC)cc1c(=O)cc(-c3ccc(-c4c[nH]nn4)cc3)oc12 | – | – | – | 120
153 nM | 8570 nM | Active | COc1ccc(OC)c2c1c(OC)cc1c(=O)cc(-c3ccc(-c4cn(CCCCCOc5cccc6c5C(=O)N(C5CCC(=O)NC5=O)C6=O)nn4)cc3)oc12 (configuration not stated) | – | – | – | 56.1
95.1 nM | 9840 nM | Dose-dependent effect and Tde | COc1ccc(OC)c2c1c(OC)cc1c(=O)cc(-c3ccc(-c4cn(CCCCCCOc5cccc6c5C(=O)N(C5CCC(=O)NC5=O)C6=O)nn4)cc3)oc12 (configuration not stated) | – | – | – | 104
101 nM | 9030 nM | Active | COc1ccc(OC)c2c1c(OC)cc1c(=O)cc(-c3ccc(-c4cn(CCOc5cccc6c5C(=O)N(C5CCC(=O)NC5=O)C6=O)nn4)cc3)oc12 (configuration not stated) | – | – | – | 89.2

The remaining lines, values behind:

Compound | IC50 (Cytochrome P450 1B1) | IC50 (Cytochrome P450 1A2) | Activity [1] | IC50 (DU-145 [2]) | IC50 (DU-145 [3]) | Ratio IC50 [4] | Ratio IC50 (Homo sapiens)
[N-]=[N+]=NCCCCCOc1cccc2c1C(=O)N(C1CCC(=O)NC1=O)C2=O (configuration not stated) | > 10000 nM | > 10000 nM | Not Active | – | – | – | –
CC(=O)O[C@@]12CO[C@@H]1C[C@H](O)[C@@]1(C)C(=O)[C@H](O)C3=C(C)[C@@H](OC(=O)[C@H](O)[C@@H](NC(=O)OC(C)(C)C)c4ccccc4)C[C@@](O)([C@@H](OC(=O)c4ccccc4)[C@H]21)C3(C)C [DOCETAXEL ANHYDROUS] | – | – | – | 4.95 nM | 43.2 nM | 9 | –
COc1ccc(OC)c2c1c(OC)cc1c(=O)cc(-c3ccc(Cl)cc3)oc12 | 0.6 nM | 37.2 nM | – | – | – | – | 62
[N-]=[N+]=NCCCCCCCCOc1cccc2c1C(=O)N(C1CCC(=O)NC1=O)C2=O (configuration not stated) | > 10000 nM | > 10000 nM | Not Active | – | – | – | –
C#Cc1ccc(-c2cc(=O)c3cc(OC)c4c(OC)ccc(OC)c4c3o2)cc1 | 2.1 nM | 885 nM | Not Active | – | – | – | 422
COc1ccc(OC)c2c1c(OC)cc1c(=O)cc(-c3ccccc3)oc12 | 1.4 nM | 25.8 nM | – | – | – | – | 18.4
[N-]=[N+]=NCCCCCCOc1cccc2c1C(=O)N(C1CCC(=O)NC1=O)C2=O (configuration not stated) | > 10000 nM | > 10000 nM | – | – | – | – | –
[N-]=[N+]=NCCOc1cccc2c1C(=O)N(C1CCC(=O)NC1=O)C2=O (configuration not stated) | > 10000 nM | > 10000 nM | – | – | – | – | –
